Consider 7 molecules from paper PMC3490489 (Clinical cancer research : an official journal of the …, 2012).

For data set [1] the following is noted: cited from earlier work.
For data set [2], the target named is T1, UGT1A9 (Homo sapiens, UniProt O60656).
T1 sequence (O60656 26-530): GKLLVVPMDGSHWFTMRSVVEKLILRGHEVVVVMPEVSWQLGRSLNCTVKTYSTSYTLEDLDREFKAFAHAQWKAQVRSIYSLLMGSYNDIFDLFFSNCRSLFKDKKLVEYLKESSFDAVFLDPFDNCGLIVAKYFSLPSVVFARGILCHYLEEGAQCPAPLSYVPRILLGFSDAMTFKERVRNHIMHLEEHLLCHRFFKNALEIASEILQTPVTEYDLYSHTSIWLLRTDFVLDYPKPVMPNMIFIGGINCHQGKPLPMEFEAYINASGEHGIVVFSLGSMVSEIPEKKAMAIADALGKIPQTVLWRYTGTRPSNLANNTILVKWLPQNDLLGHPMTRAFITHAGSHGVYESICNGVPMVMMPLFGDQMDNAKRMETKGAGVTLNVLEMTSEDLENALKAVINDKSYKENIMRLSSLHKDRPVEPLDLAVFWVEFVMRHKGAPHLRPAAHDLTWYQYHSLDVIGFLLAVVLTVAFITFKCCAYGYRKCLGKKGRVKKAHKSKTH
Kind of data set: Inhibition of UGT1A9-mediated sorafenib glucuronidation by azole antifungals. Type of data set: biochemical.

The test system of data set [3] is AML cell lines. To be noted: cited from earlier work.
The test system of data set [4] is human liver microsomes (HLM). Kind of data set: Sorafenib N-oxide formation in microsomes from human liver samples. Type of data set: in vitro ADME. To be noted: 10 to 15 year age group, sorafenib 10 µM, 60 min.
The format of data set [5] is in vivo, human.
The target of data set [6] is T1, UGT1A9. The following applies: panel of purified human UGT enzymes.
Substrate in data set [7]: CNC(=O)c1cc(Oc2ccc(NC(=O)Nc3ccc(Cl)c(C(F)(F)F)c3)cc2)ccn1
In words: not read. To be noted: other: purified human UGT1A9.

Like-named read-outs stand apart in the source and are kept apart here.

Regarding `CCNCCNC(=O)c1c(C)[nH]c(/C=C2\C(=O)Nc3ccc(F)cc32)c1C` [N-desethyl-sunitinib], the “Share of total pharmacologic activity accounted for by the active metabolite” value in data set [1] (cancer patients given sunitinib) is recorded as 30–50%.

In general, Ki refers to the equilibrium dissociation constant of an inhibitor or competing ligand from its target. Molecule `CC(=O)N1CCN(c2ccc(OCC3COC(Cn4ccnc4)(c4ccc(Cl)cc4Cl)O3)cc2)CC1` (stereo not drawn) [ketoconazole, reference compound] gave an inhibitory constant (Ki) in data set [2] of 2200 nM. For the same molecule, in data set [1] (healthy subjects), the “Effect of ketoconazole on sorafenib plasma clearance” value was “no effect on sorafenib plasma clearance”.

In the case of `CC[C@@H]([C@H](C)O)n1ncn(-c2ccc(N3CCN(c4ccc(OC[C@@H]5CO[C@@](Cn6cncn6)(c6ccc(F)cc6F)C5)cc4)CC3)cc2)c1=O` [posaconazole, reference compound], in data set [2], the “Inhibition of sorafenib glucuronidation in vitro” value is given as “weak inhibitors of sorafenib glucuronidation”. In addition, the “Effect on sorafenib N-oxide production in vivo” value (children given sorafenib concurrent with the azole) is given as “reduced N-oxide production to negligible levels”.

Take `CNC(=O)c1cc(Oc2ccc(NC(=O)Nc3ccc(Cl)c(C(F)(F)F)c3)cc2)cc[n+]1[O-]` [sorafenib N-oxide]: the “Cytotoxic activity” value in data set [3] is given as “exhibited cytotoxic activity”. Also, the “Sorafenib N-oxide formation velocity, median” value is −1.5 log[µM/min/mg HLM] in data set [4] (females) and −1.1 log[µM/min/mg HLM] in data set [4] (males). For the same molecule, the N-oxide metabolite ratio runs as follows: (first patient, day 383, concurrent oral voriconazole 150 mg twice daily) 0.05; (second patient, day 575, concurrent oral voriconazole 150 mg twice daily) 0.05; (second patient, day 607, concurrent oral voriconazole 150 mg twice daily) 0.09. Moreover, in data set [5] (all patients), the “Mean sorafenib N-oxide metabolite ratio (metabolite Css,ave / sorafenib Css,ave)” value was ~ 0.30. Also, the “CV% of sorafenib N-oxide metabolite ratio” value in data set [5] (boys greater than 10 years) is recorded as 11%; in data set [5] (boys ≤ 10 years) it was 39%; in data set [5] (girls greater than 10 years), 20%; in data set [5] (girls ≤ 10 years), 59%. In data set [5] (boys ≤ 10 years), the “Conversion to sorafenib N-oxide” value is 40%. Moreover, the “Sorafenib N-oxide metabolite ratio” value in data set [5] (boys ≤ 10 years) came out at 0.40±0.15; in data set [5] (females, all ages), 0.22±0.10; in data set [5] (girls ≤ 10 years), 0.22±0.12; in data set [5] (males older than 10 years), 0.18±0.021; in data set [5] (males, all ages), 0.26±0.15. In data set [5] (children 1 to 19 years), the “Mean conversion to sorafenib N-oxide” value is 27%. Moreover, the “N-oxide metabolite ratio, boys versus girls” value in data set [5] (children ≤ 10 years) was “approximately 2 fold”. In addition, the “Circulating concentrations of sorafenib N-oxide, mean” value in data set [5] (children, sorafenib 200 mg/m^2) is 2 to 3 µM. Further, the “Rate of conversion of sorafenib to sorafenib N-oxide” value was less than 10% in data set [1] (adults with AML) and 33% in data set [1] (twelve children with relapsed/refractory AML). In addition, the “Sorafenib N-oxide as share of circulating sorafenib concentrations” value in data set [1] (healthy subjects and cancer patients) was “approximately 10%”.

With `CNC(=O)c1cc(Oc2ccc(NC(=O)Nc3ccc(Cl)c(C(F)(F)F)c3)cc2)ccn1` [sorafenib, reference compound], the “Enzyme responsible for sorafenib glucuronidation” value in data set [6] is reported as “UGT1A9 is primarily responsible for sorafenib glucuronidation”. In addition, in data set [5] (all 30 patients), the “CV% of steady-state sorafenib CL/F” value worked out at 58% and the “Steady-state sorafenib apparent oral clearance (CL/F), mean±standard deviation” value is given as 64±37 mL/min/m^2.

Consider `C[C@@H](c1ncncc1F)[C@](O)(Cn1cncn1)c1ccc(F)cc1F` [voriconazole], for which the “Inhibition of sorafenib glucuronidation in vitro” value in data set [2] was “weak inhibitors of sorafenib glucuronidation”.

B1: UGT1A9 (Homo sapiens) (protein)
chain: GKLLVVPMDGSHWFTMRSVVEKLILRGHEVVVVMPEVSWQLGRSLNCTVKTYSTSYTLEDLDREFKAFAHAQWKAQVRSIYSLLMGSYNDIFDLFFSNCRSLFKDKKLVEYLKESSFDAVFLDPFDNCGLIVAKYFSLPSVVFARGILCHYLEEGAQCPAPLSYVPRILLGFSDAMTFKERVRNHIMHLEEHLLCHRFFKNALEIASEILQTPVTEYDLYSHTSIWLLRTDFVLDYPKPVMPNMIFIGGINCHQGKPLPMEFEAYINASGEHGIVVFSLGSMVSEIPEKKAMAIADALGKIPQTVLWRYTGTRPSNLANNTILVKWLPQNDLLGHPMTRAFITHAGSHGVYESICNGVPMVMMPLFGDQMDNAKRMETKGAGVTLNVLEMTSEDLENALKAVINDKSYKENIMRLSSLHKDRPVEPLDLAVFWVEFVMRHKGAPHLRPAAHDLTWYQYHSLDVIGFLLAVVLTVAFITFKCCAYGYRKCLGKKGRVKKAHKSKTH
As usually defined, the Km is the concentration of substrate that gives half-maximal velocity. For the molecule B1, the Km in data set [7] was 3.6 ± 0.22 µM.
